# Patent US20240218022A1, “ANTI-VISTA MACROCYCLIC PEPTIDES AND COMPOSITIONS” (BRISTOL-MYERS SQUIBB COMPANY, priority 2022, published 2024)
# pIC50: −log10 of the molar value. Starred links: 1 amine or outer side, 2 acyl side, 3 side chain; linkers in the order of their positions; H or OH if unused. Positions of bridges follow the written chain, without caps; N, C: chain ends. Non-standard residues stand in square brackets, D forms with d. Residues, ends and D or L forms follow the SMILES beside them. Phe(3-Me) = Cc1cccc(C[C@H](N)C(=O)O)c1; 2Nal = N[C@@H](Cc1ccc2ccccc2c1)C(=O)O; βAsp = O=C(O)[C@H](CC(=O)[*:2])N[*:1]; Ahp(2) = CCCCC[C@H](N)C(=O)O; NMeNle = CCCC[C@H](NC)C(=O)O; Tle = CC(C)(C)[C@H](N)C(=O)O; NMeS = CN[C@@H](CO)C(=O)O; NHexGly = CCCCCCNCC(=O)O; Orn = NCCC[C@H](N)C(=O)O; Aun = NCCCCCCCCCCC(=O)O; AEEA = NCCOCCOCC(=O)O
# Molecular target: T1, mouse VISTA (mVISTA) (Mus musculus, UniProt Q9D659)
# T1 construct: expressed in transfected cells; host or cells: Human embryonic kidney 293T cells
# T1 sequence (Q9D659 33-308): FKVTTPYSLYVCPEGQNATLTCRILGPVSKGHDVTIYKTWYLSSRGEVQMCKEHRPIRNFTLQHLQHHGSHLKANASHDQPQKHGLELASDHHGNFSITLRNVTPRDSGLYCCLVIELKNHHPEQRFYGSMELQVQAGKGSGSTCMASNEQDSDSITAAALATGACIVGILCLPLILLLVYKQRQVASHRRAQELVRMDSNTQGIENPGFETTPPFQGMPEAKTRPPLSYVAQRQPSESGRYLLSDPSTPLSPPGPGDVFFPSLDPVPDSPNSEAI
# Test: Cell-Based Binding High-Content Assay For mVISTA (HC CBA mVISTA)
# Conditions: cell-based binding high-content assay, mVISTA; read-out: HC CBA miPrISTA IC50
# Method in brief: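 293T cells expressing mouse VISTA, with compounds added either after seeding ("no wash") or before seeding and then washed out after 1 h. Biotinylated peptide 2 nM for 30 min at room temperature, then detection with Alexa 647–streptavidin. After fixation with Hoechst stain, plates were high-content imaged; IC50 from four-parameter logistic fit.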
row,SMILES,pIC50
1,CCCCCCN1CC(=O)N[C@@H](Cc2ccc(O)cc2)C(=O)N[C@@H](CC(C)C)C(=O)N[C@@H](CC(N)=O)C(=O)N[C@@H](CCCNC(=N)N)C(=O)N(C)[C@@H](CO)C(=O)N[C@@H](CCCCC)C(=O)N2CCC[C@H]2C(=O)N[C@@H](C(C)(C)C)C(=O)N[C@@H](CC(=O)O)C(=O)N[C@H](C(=O)N[C@@H](CC(=O)NCCOCCOCC(=O)N[C@@H](CC(=O)O)C(=O)NCCOCCOCC(=O)NCCCCCCCCCCC(=O)O)C(=O)O)CSCC(=O)N[C@@H](Cc2ccccc2)C(=O)N[C@@H](Cc2cccc(C)c2)C(=O)N[C@@H](CC(=O)O)C1=O [compound 2069] ({CH2CO}-F[Phe(3-Me)]D[NHexGly]YLNR[NMeS][Ahp(2)]P[Tle]DC[βAsp][AEEA]D[AEEA][Aun]-OH; thioether N-14),7.35
2,CCCCCCN1CC(=O)N[C@@H](Cc2ccc(O)cc2)C(=O)N[C@@H](CC(C)C)C(=O)N[C@@H](CC(N)=O)C(=O)N[C@@H](CCCNC(=N)N)C(=O)N(C)[C@@H](CO)C(=O)N[C@@H](CCCCC)C(=O)N2CCC[C@H]2C(=O)N[C@@H](C(C)(C)C)C(=O)N[C@@H](CC(=O)O)C(=O)N[C@H](C(=O)N[C@@H](CC(=O)NCCOCCOCC(=O)N[C@@H](CC(=O)O)C(=O)NCCOCCOCC(=O)NCCCCCCCCCCC(=O)O)C(=O)O)CSCC(=O)N[C@@H](Cc2ccc3ccccc3c2)C(=O)N[C@@H](Cc2ccc(O)cc2)C(=O)N[C@@H](CC(=O)O)C1=O [compound 2070] ({CH2CO}-[2Nal]YD[NHexGly]YLNR[NMeS][Ahp(2)]P[Tle]DC[βAsp][AEEA]D[AEEA][Aun]-OH; thioether N-14),7.38
3,CCCCCCN1CC(=O)N[C@@H](Cc2ccc(O)cc2)C(=O)N[C@@H](CC(C)C)C(=O)N[C@@H](CC(N)=O)C(=O)N[C@@H](CCCNC(=N)N)C(=O)N(C)[C@@H](CO)C(=O)N[C@@H](CCCCC)C(=O)N2CCC[C@H]2C(=O)N[C@@H](C(C)(C)C)C(=O)N[C@@H](CC(=O)O)C(=O)N[C@H](C(=O)N[C@@H](CC(=O)NCCOCCOCC(=O)N[C@@H](CC(=O)O)C(=O)NCCOCCOCC(=O)NCCCCCCCCCCC(=O)O)C(=O)O)CSCC(=O)N[C@@H](Cc2cccc(C)c2)C(=O)N[C@@H](Cc2ccc(O)cc2)C(=O)N[C@@H](CC(=O)O)C1=O [compound 2071] ({CH2CO}-[Phe(3-Me)]YD[NHexGly]YLNR[NMeS][Ahp(2)]P[Tle]DC[βAsp][AEEA]D[AEEA][Aun]-OH; thioether N-14),7.56
4,CCCCCCN1CC(=O)N[C@@H](Cc2ccc(O)cc2)C(=O)N[C@@H](CC(C)C)C(=O)N[C@@H](CC(N)=O)C(=O)N[C@@H](CCCN)C(=O)N(C)[C@@H](CCCC)C(=O)N[C@@H](CCCCC)C(=O)N2CCC[C@H]2C(=O)N[C@@H](C(C)(C)C)C(=O)N[C@@H](C(C)C)C(=O)N[C@H](C(=O)N[C@@H](CC(=O)NCCOCCOCC(=O)N[C@@H](CC(=O)O)C(=O)NCCOCCOCC(=O)NCCCCCCCCCCC(=O)O)C(=O)O)CSCC(=O)N[C@@H](Cc2ccccc2)C(=O)N[C@@H](Cc2cccc(C)c2)C(=O)N[C@@H](CC(=O)O)C1=O [compound 2072] ({CH2CO}-F[Phe(3-Me)]D[NHexGly]YLN[Orn][NMeNle][Ahp(2)]P[Tle]VC[βAsp][AEEA]D[AEEA][Aun]-OH; thioether N-14),7.68
5,CCCCCCN1CC(=O)N[C@@H](Cc2ccc(O)cc2)C(=O)N[C@@H](CC(C)C)C(=O)N[C@@H](CC(N)=O)C(=O)N[C@@H](CCCNC(=N)N)C(=O)N(C)[C@@H](CCCC)C(=O)N[C@@H](CCCCC)C(=O)N2CCC[C@H]2C(=O)N[C@@H](C(C)(C)C)C(=O)N[C@@H](CC(=O)O)C(=O)N[C@H](C(=O)N[C@@H](CC(=O)NCCOCCOCC(=O)N[C@@H](CC(=O)O)C(=O)NCCOCCOCC(=O)NCCCCCCCCCCC(=O)O)C(=O)O)CSCC(=O)N[C@@H](Cc2ccccc2)C(=O)N[C@@H](Cc2cccc(C)c2)C(=O)N[C@@H](CC(=O)O)C1=O [compound 2075] ({CH2CO}-F[Phe(3-Me)]D[NHexGly]YLNR[NMeNle][Ahp(2)]P[Tle]DC[βAsp][AEEA]D[AEEA][Aun]-OH; thioether N-14),7.62
6,CCCCCCN1CC(=O)N[C@@H](Cc2ccc(O)cc2)C(=O)N[C@@H](CC(C)C)C(=O)N[C@@H](CC(N)=O)C(=O)N[C@@H](CCCN)C(=O)N(C)[C@@H](CCCC)C(=O)N[C@@H](CCCCC)C(=O)N2CCC[C@H]2C(=O)N[C@@H](C(C)(C)C)C(=O)N[C@@H](CO)C(=O)N[C@H](C(=O)N[C@@H](CC(=O)NCCOCCOCC(=O)N[C@@H](CC(=O)O)C(=O)NCCOCCOCC(=O)NCCCCCCCCCCC(=O)O)C(=O)O)CSCC(=O)N[C@@H](Cc2ccccc2)C(=O)N[C@@H](Cc2cccc(C)c2)C(=O)N[C@@H](CC(=O)O)C1=O [compound 2077] ({CH2CO}-F[Phe(3-Me)]D[NHexGly]YLN[Orn][NMeNle][Ahp(2)]P[Tle]SC[βAsp][AEEA]D[AEEA][Aun]-OH; thioether N-14),7.47
7,CCCCCCN1CC(=O)N[C@@H](Cc2ccc(O)cc2)C(=O)N[C@@H](CC(C)C)C(=O)N[C@@H](CC(N)=O)C(=O)N[C@@H](CCCNC(=N)N)C(=O)N(C)[C@@H](CCCC)C(=O)N[C@@H](CCCCC)C(=O)N2CCC[C@H]2C(=O)N[C@@H](C(C)(C)C)C(=O)N[C@@H](CC(=O)O)C(=O)N[C@H](C(=O)N[C@@H](CCCN)C(=O)NCCOCCOCC(=O)N[C@@H](CC(=O)O)C(=O)NCCOCCOCC(=O)NCCCCCCCCCCC(=O)O)CSCC(=O)N[C@@H](Cc2ccccc2)C(=O)N[C@@H](Cc2ccc(O)cc2)C(=O)N[C@@H](CC(=O)O)C1=O [compound 2082] ({CH2CO}-FYD[NHexGly]YLNR[NMeNle][Ahp(2)]P[Tle]DC[Orn][AEEA]D[AEEA][Aun]-OH; thioether N-14),7.56

# Other lines, results leading:
row,pIC50,SMILES
1,7.52,CCCCCCN1CC(=O)N[C@@H](Cc2ccc(O)cc2)C(=O)N[C@@H](CC(C)C)C(=O)N[C@@H](CC(N)=O)C(=O)N[C@@H](CCCNC(=N)N)C(=O)N(C)[C@@H](CO)C(=O)N[C@@H](CCCCC)C(=O)N2CCC[C@H]2C(=O)N[C@@H](C(C)(C)C)C(=O)N[C@@H](CO)C(=O)N[C@H](C(=O)N[C@@H](CC(=O)NCCOCCOCC(=O)N[C@@H](CC(=O)O)C(=O)NCCOCCOCC(=O)NCCCCCCCCCCC(=O)O)C(=O)O)CSCC(=O)N[C@@H](Cc2ccccc2)C(=O)N[C@@H](Cc2ccc(O)cc2)C(=O)N[C@@H](CC(=O)O)C1=O [compound 2068] ({CH2CO}-FYD[NHexGly]YLNR[NMeS][Ahp(2)]P[Tle]SC[βAsp][AEEA]D[AEEA][Aun]-OH; thioether N-14)
2,7.48,CCCCCCN1CC(=O)N[C@@H](Cc2ccc(O)cc2)C(=O)N[C@@H](CC(C)C)C(=O)N[C@@H](CC(N)=O)C(=O)N[C@@H](CCCNC(=N)N)C(=O)N(C)[C@@H](CCCC)C(=O)N[C@@H](CCCCC)C(=O)N2CCC[C@H]2C(=O)N[C@@H](C(C)(C)C)C(=O)N[C@@H](C(C)C)C(=O)N[C@H](C(=O)N[C@@H](CC(=O)NCCOCCOCC(=O)N[C@@H](CC(=O)O)C(=O)NCCOCCOCC(=O)NCCCCCCCCCCC(=O)O)C(=O)O)CSCC(=O)N[C@@H](Cc2ccccc2)C(=O)N[C@@H](Cc2cccc(C)c2)C(=O)N[C@@H](CC(=O)O)C1=O [compound 2073] ({CH2CO}-F[Phe(3-Me)]D[NHexGly]YLNR[NMeNle][Ahp(2)]P[Tle]VC[βAsp][AEEA]D[AEEA][Aun]-OH; thioether N-14)
3,7.40,CCCCCCN1CC(=O)N[C@@H](Cc2ccc(O)cc2)C(=O)N[C@@H](CC(C)C)C(=O)N[C@@H](CC(N)=O)C(=O)N[C@@H](CCCN)C(=O)N(C)[C@@H](CCCC)C(=O)N[C@@H](CCCCC)C(=O)N2CCC[C@H]2C(=O)N[C@@H](C(C)(C)C)C(=O)N[C@@H](CC(=O)O)C(=O)N[C@H](C(=O)N[C@@H](CC(=O)NCCOCCOCC(=O)N[C@@H](CC(=O)O)C(=O)NCCOCCOCC(=O)NCCCCCCCCCCC(=O)O)C(=O)O)CSCC(=O)N[C@@H](Cc2ccccc2)C(=O)N[C@@H](Cc2cccc(C)c2)C(=O)N[C@@H](CC(=O)O)C1=O [compound 2074] ({CH2CO}-F[Phe(3-Me)]D[NHexGly]YLN[Orn][NMeNle][Ahp(2)]P[Tle]DC[βAsp][AEEA]D[AEEA][Aun]-OH; thioether N-14)
4,7.42,CCCCCCN1CC(=O)N[C@@H](Cc2ccc(O)cc2)C(=O)N[C@@H](CC(C)C)C(=O)N[C@@H](CC(N)=O)C(=O)N[C@@H](CCCNC(=N)N)C(=O)N(C)[C@@H](CCCC)C(=O)N[C@@H](CCCCC)C(=O)N2CCC[C@H]2C(=O)N[C@@H](C(C)(C)C)C(=O)N[C@@H](CO)C(=O)N[C@H](C(=O)N[C@@H](CC(=O)NCCOCCOCC(=O)N[C@@H](CC(=O)O)C(=O)NCCOCCOCC(=O)NCCCCCCCCCCC(=O)O)C(=O)O)CSCC(=O)N[C@@H](Cc2ccccc2)C(=O)N[C@@H](Cc2cccc(C)c2)C(=O)N[C@@H](CC(=O)O)C1=O [compound 2076] ({CH2CO}-F[Phe(3-Me)]D[NHexGly]YLNR[NMeNle][Ahp(2)]P[Tle]SC[βAsp][AEEA]D[AEEA][Aun]-OH; thioether N-14)
5,7.55,CCCCCCN1CC(=O)N[C@@H](Cc2ccc(O)cc2)C(=O)N[C@@H](CC(C)C)C(=O)N[C@@H](CC(N)=O)C(=O)N[C@@H](CCCNC(=N)N)C(=O)N(C)[C@@H](CCCC)C(=O)N[C@@H](CCCCC)C(=O)N2CCC[C@H]2C(=O)N[C@@H](C(C)(C)C)C(=O)N[C@@H](CO)C(=O)N[C@H](C(=O)N[C@@H](CCCCN)C(=O)NCCOCCOCC(=O)N[C@@H](CC(=O)O)C(=O)NCCOCCOCC(=O)NCCCCCCCCCCC(=O)O)CSCC(=O)N[C@@H](Cc2ccccc2)C(=O)N[C@@H](Cc2ccc(O)cc2)C(=O)N[C@@H](CC(=O)O)C1=O [compound 2080] ({CH2CO}-FYD[NHexGly]YLNR[NMeNle][Ahp(2)]P[Tle]SCK[AEEA]D[AEEA][Aun]-OH; thioether N-14)
